In PubChem BioAssay (NCI):
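All cell lines were grown in 96-well plates and treated with compound for 48 hours. GI50 = concentration required for 50% inhibition of growth. TGI denotes the concentration required for complete inhibition of growth.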

Columns and labels:
Assay in all cases: NCI-60 cell line screen, 48 h
[1] = test system: COLO 205 colon
[2] = test system: EKVX NSCLC
[3] = test system: HCT-116 colon
[4] = test system: HCT-15 colon
[5] = test system: HOP-62 NSCLC
[6] = test system: M14 melanoma
[7] = test system: MOLT-4 leukemia
[8] = test system: SNB-19 CNS
[9] = test system: SR leukemia
[10] = test system: UO-31 renal

Structure (SMILES)	GI50 [1] [µM]	TGI [1] [µM]	GI50 [2] [µM]	TGI [2] [µM]	GI50 [3] [nM]	TGI [3] [µM]	GI50 [4] [nM]	TGI [4] [µM]	GI50 [5] [µM]	TGI [5] [µM]	GI50 [6] [µM]	TGI [6] [µM]	GI50 [7] [nM]	TGI [7] [µM]	GI50 [8] [µM]	TGI [8] [µM]	GI50 [9] [nM]	TGI [9] [µM]	GI50 [10] [µM]	TGI [10] [µM]
CC(C)(C)c1ccc(OCCCCCCN2CCNCC2)cc1	1.95	4.09	10.2	24.2	3180	13.9	3040	10	11	25.8	3.22	13.5	1820	5.07	8.06	24.4	2040	5.85	12.2	25.6
N=C(N)c1ccc(N2CCCN(c3ccc(C(=N)N)cc3)CC2)cc1	31.8	> 100	42.4	> 100	> 100000	> 100	65300	> 100	61.6	> 100	> 100	> 100	> 100000	> 100	48.7	> 100	> 100000	> 100	> 100	> 100
Cc1cc2c(C)n(Cc3ccc(Cl)cc3Cl)nc2c(C#N)c1C	–	> 100	–	> 100	–	> 100	–	> 100	–	49.7	–	> 100	–	> 100	–	45.7	–	> 100	–	> 95.3
CCN=C1C=CC(=C(c2ccc(N)cc2)c2ccc(N(CC)CC)c(C)c2)C=C1	0.185	0.4	0.266	11.1	239	1.11	917	4.77	0.316	1.73	0.349	1.77	394	5.12	0.225	1.62	313	1.24	2.03	10.3
CC(C)(C)c1n[nH]c(=S)n(/N=C/c2ccc(F)c(Oc3ccccc3)c2)c1=O	38.6	> 100	41.6	> 100	> 100000	> 100	37700	> 100	90.1	> 100	42	> 100	39800	> 100	40.9	> 100	> 100000	> 100	33.9	> 100
C=CC(=O)N1CCN(c2ccc3cccc(NC(=O)c4cnc(C)cn4)c3n2)CC1	6.26	30	12.4	> 100	2360	20.1	2080	24.6	4.24	> 100	3.05	21.3	2180	6.66	5.38	> 100	838	12.7	0.351	5.14
O[C@H]1CO[C@H]2[C@@H]1OC[C@@H]2Oc1ccc(Nc2ccnc(Nc3ccc(O[C@H]4CO[C@H]5[C@@H]4OC[C@@H]5O)c(Cl)c3)n2)cc1Cl	1.86	6.16	2.4	8.86	2240	9.12	2320	6.6	1.71	4.03	1.48	4.18	1720	6.04	2.75	7.98	2280	15.3	1.55	3.06
O=C1C(=O)N(c2ccc(Cl)c(Cl)c2)C(=O)C(=O)C1c1nc2ccccc2s1	–	> 100	–	> 100	–	> 100	–	> 100	–	> 100	–	> 100	–	> 100	–	> 100	–	> 100	–	> 100
Cc1cc2c3ccc(C)[n+](C)c3ccc2n1C	1.75	5.52	0.456	13.6	2310	33.1	> 100000	> 100	2.8	18.8	17.2	> 100	3120	27.4	2	14	4240	> 100	3.79	> 100
CCCCCCc1cc(C(=O)Nc2cccc(C(F)(F)F)c2)nc(N)n1	–	> 100	–	> 100	–	> 100	–	> 100	–	> 100	–	> 100	–	> 100	–	> 100	–	> 100	–	> 100
CCCCCCCCCCCC(=O)OCCOCCOCCOCCOCCOCc1ccc(OC)cc1	–	> 100	–	> 100	–	> 100	–	> 100	–	> 100	–	> 100	–	> 100	–	> 100	–	> 100	–	> 100
c1ccc(SC(CCCCC(Sc2ccccc2)Sc2ccccc2)Sc2ccccc2)cc1	–	> 100	–	> 100	–	> 100	–	> 100	–	> 100	–	> 100	–	> 100	–	> 100	–	> 100	–	> 100
CNC(=O)OCc1c(COC(=O)NC)c(C)n(-c2ccc(Br)cc2)c1C	–	27.5	–	> 100	–	25.8	–	29.1	–	29.1	–	32.5	–	> 100	–	44.3	–	> 100	–	19.5
COc1cccc(NC(=O)c2sc3nc4c(cc3c2N)CN(Cc2ccccc2)CC4)c1	7.55	54.5	–	–	1740	> 100	930	> 100	1.83	6.47	12.7	86.8	21900	> 100	4.75	> 100	453	47.7	3.27	32.3
C=C1CC[C@@H]2[C@](C)(COC(C)=O)[C@@H](O)CC[C@@]2(C)[C@@H]1COc1ccc2ccc(=O)oc2c1	–	–	> 100	> 100	> 100000	> 100	> 100000	> 100	> 100	> 100	> 100	> 100	> 100000	> 100	> 100	> 100	87400	> 100	> 100	> 100
